# Assay results from ChEMBL document CHEMBL1240330, “Splicing factor SF3b as a target of the antitumor natural product pladienolide” (Nat Chem Biol, 2007).
# Columns and labels:
# [1] = biological target: T1, Splicing factor 3B subunit 3 (Homo sapiens, UniProt Q15393); test: (§1) Inhibition of SAP130 in VEGF-stimulated human U251 cells by PLAP reporter gene assay; assay type: cell-based, U-251
# T1 sequence (Q15393 whole entry): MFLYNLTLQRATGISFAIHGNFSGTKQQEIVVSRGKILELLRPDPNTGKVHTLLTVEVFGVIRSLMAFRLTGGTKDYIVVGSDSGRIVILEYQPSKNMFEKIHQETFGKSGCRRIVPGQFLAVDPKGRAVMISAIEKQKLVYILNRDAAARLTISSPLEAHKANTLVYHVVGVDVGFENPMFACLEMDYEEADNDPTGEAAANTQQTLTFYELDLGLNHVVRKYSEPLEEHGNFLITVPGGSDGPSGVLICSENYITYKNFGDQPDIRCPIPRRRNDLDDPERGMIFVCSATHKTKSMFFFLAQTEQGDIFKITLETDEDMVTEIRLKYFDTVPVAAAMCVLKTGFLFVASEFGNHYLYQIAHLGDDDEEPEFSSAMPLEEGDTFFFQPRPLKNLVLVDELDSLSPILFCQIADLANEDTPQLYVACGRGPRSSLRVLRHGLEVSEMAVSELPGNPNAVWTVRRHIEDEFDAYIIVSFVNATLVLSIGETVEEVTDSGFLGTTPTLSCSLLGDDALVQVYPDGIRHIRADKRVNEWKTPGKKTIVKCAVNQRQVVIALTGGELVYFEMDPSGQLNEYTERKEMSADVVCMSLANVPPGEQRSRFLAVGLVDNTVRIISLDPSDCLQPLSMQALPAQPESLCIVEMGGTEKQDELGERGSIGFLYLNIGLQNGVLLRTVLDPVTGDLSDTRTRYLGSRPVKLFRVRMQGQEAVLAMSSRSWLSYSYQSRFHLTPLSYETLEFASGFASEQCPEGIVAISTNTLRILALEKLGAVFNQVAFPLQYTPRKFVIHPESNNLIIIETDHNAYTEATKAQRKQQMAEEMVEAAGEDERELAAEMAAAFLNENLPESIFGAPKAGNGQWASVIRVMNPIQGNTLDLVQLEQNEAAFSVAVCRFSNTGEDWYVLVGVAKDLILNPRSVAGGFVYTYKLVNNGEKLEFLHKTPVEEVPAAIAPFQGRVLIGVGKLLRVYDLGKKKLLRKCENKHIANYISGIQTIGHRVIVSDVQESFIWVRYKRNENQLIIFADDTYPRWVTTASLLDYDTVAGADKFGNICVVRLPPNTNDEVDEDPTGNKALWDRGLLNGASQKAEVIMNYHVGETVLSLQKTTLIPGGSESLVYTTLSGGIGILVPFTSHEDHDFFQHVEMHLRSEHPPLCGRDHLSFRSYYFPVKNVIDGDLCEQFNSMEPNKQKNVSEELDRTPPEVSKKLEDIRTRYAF
# [2] = biological target: Splicing factor 3B subunit 1 / PHD finger-like domain-containing protein 5A (Homo sapiens, UniProt O75533+Q7RTV0); test: as §1; assay type: cell-based, U-251; conditions: u-251
# Chain of Splicing factor 3B subunit 1 / PHD finger-like domain-containing protein 5A (O75533 whole entry, the tested form may be a part): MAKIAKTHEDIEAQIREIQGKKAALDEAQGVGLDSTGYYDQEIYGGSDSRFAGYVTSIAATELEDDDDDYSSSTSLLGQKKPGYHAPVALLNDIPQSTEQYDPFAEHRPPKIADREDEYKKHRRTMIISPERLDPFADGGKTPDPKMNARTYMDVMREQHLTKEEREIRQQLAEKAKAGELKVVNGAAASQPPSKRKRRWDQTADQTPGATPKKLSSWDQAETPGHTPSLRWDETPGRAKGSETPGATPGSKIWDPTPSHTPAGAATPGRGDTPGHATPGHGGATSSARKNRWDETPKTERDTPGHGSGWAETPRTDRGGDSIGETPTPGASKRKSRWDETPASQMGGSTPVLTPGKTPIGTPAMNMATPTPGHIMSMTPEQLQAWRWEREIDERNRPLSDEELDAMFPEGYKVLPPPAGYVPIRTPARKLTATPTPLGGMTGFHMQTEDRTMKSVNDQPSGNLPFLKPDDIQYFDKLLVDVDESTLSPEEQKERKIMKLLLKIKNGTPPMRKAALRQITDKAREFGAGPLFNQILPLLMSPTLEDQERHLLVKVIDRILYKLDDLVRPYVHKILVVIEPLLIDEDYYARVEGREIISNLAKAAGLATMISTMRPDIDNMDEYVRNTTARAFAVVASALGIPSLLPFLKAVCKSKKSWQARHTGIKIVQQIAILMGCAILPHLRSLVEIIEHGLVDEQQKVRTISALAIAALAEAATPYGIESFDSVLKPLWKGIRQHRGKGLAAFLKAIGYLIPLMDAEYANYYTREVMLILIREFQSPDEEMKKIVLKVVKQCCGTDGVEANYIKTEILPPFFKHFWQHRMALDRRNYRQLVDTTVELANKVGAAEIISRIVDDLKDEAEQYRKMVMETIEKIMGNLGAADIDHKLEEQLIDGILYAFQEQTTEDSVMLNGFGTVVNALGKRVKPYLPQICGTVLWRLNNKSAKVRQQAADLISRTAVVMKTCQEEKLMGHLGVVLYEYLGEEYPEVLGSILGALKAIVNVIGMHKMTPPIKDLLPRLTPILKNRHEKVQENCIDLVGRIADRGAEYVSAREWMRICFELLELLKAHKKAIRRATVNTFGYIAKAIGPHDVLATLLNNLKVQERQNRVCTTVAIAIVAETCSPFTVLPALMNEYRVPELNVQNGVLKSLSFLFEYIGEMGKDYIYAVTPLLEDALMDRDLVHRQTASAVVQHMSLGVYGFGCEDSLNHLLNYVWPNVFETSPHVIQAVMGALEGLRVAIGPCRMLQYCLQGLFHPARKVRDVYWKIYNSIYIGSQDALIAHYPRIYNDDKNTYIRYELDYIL
# Chain of Splicing factor 3B subunit 1 / PHD finger-like domain-containing protein 5A (Q7RTV0 2-110 limits assumed): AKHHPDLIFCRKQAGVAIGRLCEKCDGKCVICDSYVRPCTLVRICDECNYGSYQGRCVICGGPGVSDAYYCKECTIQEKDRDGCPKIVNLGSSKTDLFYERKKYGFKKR
# [3] = biological target: T2, Splicing factor 3B subunit 3 (Homo sapiens) (UniProt Q15393); test: Displacement of [3H]probe from SAP130 in human WiDr cell immunoprecipitate sample assessed as radioactive intensity at 10 uM after 1 hr by scintillation counting
# T2 sequence (whole entry): T1 sequence (Q15393 whole entry)
IC50 [1] [nM],IC50 [2] [nM],Activity [3] [%],SMILES
611,–,–,CC(/C=C/C(=O)NO)=C\[C@@H](C)C(=O)c1ccc(N(C)C)cc1 [TRICHOSTATIN]
–,3480,< 50,CC(=O)N[C@@H](CSC(=O)[C@]1([C@@H](O)C(C)C)NC(=O)[C@H](C)[C@@H]1O)C(=O)O [LACTACYSTIN]
–,13.8,–,C=CC[C@@H]1/C=C(\C)C[C@H](C)C[C@H](OC)[C@H]2O[C@@](O)(C(=O)C(=O)N3CCCC[C@H]3C(=O)O[C@H](/C(C)=C/[C@@H]3CC[C@@H](O)[C@H](OC)C3)[C@H](C)[C@@H](O)CC1=O)[C@H](C)C[C@@H]2OC [TACROLIMUS ANHYDROUS]
